Here are results for two molecules from article PMC2912835 (Journal of Experimental & Clinical Cancer Research : CR, 2010).

The structures appear in SMILES notation.

The test system of test [1] is Kit (hair depigmentation). Details: method as in PMID 12966161. The conditions noted are these: mice; cited from earlier work.
For a further test, the system named is Kit. Details: method as in PMID 16951187. The note with it: biochemical assays; read-out: IC50, inhibition of Kit activity; cited from earlier work.
Test [2] has as its system Ba/F3 cells stably transfected with KIT V560D. Kind of test: cells. The note with it: Mus musculus, BaF3, 24 h, read-out: IC50 of Stably Transfected Ba/F3 Cell Survival. The protocol: (§1) The ability of Kit mutants to act as survival factors was assessed in Kit-dependent Ba/F3 cells. Ba/F3 cells stably transfected with various KIT mutants were seeded in a 96-well tissue culture plate at a density of 5 × 10^3 cells per well. […] Cell viability was assessed by measuring the level of adenosine triphosphate using ATPlite assays (PerkinElmer Life Sciences, Boston, MA). Reconstituted ATPLite 1-step solution was added to each well followed by incubation with shaking for 2 minutes. The plate was read on a Victor Model 1420 multilabel counter (PerkinElmer Inc.) under the luminescence setting.

Test [3] deals with Ba/F3 cells stably transfected with KIT V560D/V654A. The experiment in a line: cells. The conditions noted are these: Mus musculus, BaF3, 24 h, read-out: IC50 of Stably Transfected Ba/F3 Cell Survival. How it is done:
as §1

Test [4] relates to Ba/F3 cells stably transfected with KIT V560D/T670I. The experiment in a line: cells. The note with it: Mus musculus, BaF3, 24 h, read-out: IC50 of Stably Transfected Ba/F3 Cell Survival. The protocol: as §1
The test system of test [5] is Ba/F3 cells stably transfected with KIT Y823D. The experiment in a line: cells. The note with it: Mus musculus, BaF3, 24 h, read-out: IC50 of Stably Transfected Ba/F3 Cell Survival. How it is done:
as §1

The subject of test [6] is Ba/F3 cells stably transfected with KIT AYins503-504. Kind of test: cells. The note with it: Mus musculus, BaF3, 24 h, read-out: IC50 of Stably Transfected Ba/F3 Cell Survival. The protocol:
as §1

Test [7] deals with Ba/F3 cells stably transfected with KIT Δ552-559. The experiment in a line: cells. The conditions noted are these: Mus musculus, BaF3, 24 h, read-out: IC50 of Stably Transfected Ba/F3 Cell Survival. The protocol: as §1
The test system of the next test is PDGFR. Details: method as in PMID 16951187. The note with it: biochemical assays; read-out: IC50, inhibition of PDGFR activity; cited from earlier work.
A further test has as its target T1, Kit D816V mutant (Homo sapiens, UniProt P10721, D816V).
T1 construct: human wild-type KIT to yield full-length, mutant constructs; expressed in transfected cells; host or cells: AM-1/D CHO cells, stably transfected
Kind of test: Cell-based Kit autophosphorylation assay, D816V mutant. The conditions noted are these: stably transfected CHO cells, up to 3000 nM. The protocol: (§2) CHO cells stably transfected with wild-type or mutant isoforms of KIT were seeded in a 96-well tissue culture plate at a density of 2 × 10^4 cells per well. For stem cell factor (SCF) characterization experiments, cells were stimulated with serial dilutions of SCF for varying times. […] Cell lines transfected with activating KIT mutants were not stimulated with SCF in IC50 experiments. Cells were washed with phosphate-buffered saline and lysed in RIPA buffer (50 mM Tris, pH 7; 150 mM NaCl, 1% Igepal, 0.5% sodium deoxycholate, 0.1% SDS, 300 μM activated sodium vanadate, 1× protease inhibitor cocktail) for 30 minutes at 4°C with shaking. Cell lysates were added to a 96-well DELFIA microplate (PerkinElmer Inc.) coated with anti-Kit antibody (1 μg per well; AF332, R&D Systems, Inc.; Minneapolis, MN) and incubated for 2 hours. Lysates were then removed and the plate was washed 3 times with DELFIA wash buffer (PerkinElmer Inc.). […] The plate was then washed 3 times with DELFIA wash buffer before 0.01 μg of Eu-N1-labeled anti-mouse antibody (Cat. # AD0124, PerkinElmer Inc.) was added to each well. The plate was again incubated at room temperature for 1 hour and then washed 3 times with DELFIA wash buffer before the signal was detected by adding DELFIA enhancement buffer (PerkinElmer Inc.) to each well.

The test system of test [8] is Kit activity (hair depigmentation). Kind of test: In vivo hair depigmentation assay (surrogate marker of Kit activity). The conditions noted are these: female C57B6 mice. How it is done: Female C57B6 mice (6 to 8 weeks old; 20 to 30 g; Charles River Laboratories, Wilmington, MA) were anesthetized, and an area of skin 2 × 2 cm on the right flank was depilated. […] On day 21, photographs were taken for assessment of hair depigmentation. The same patch of skin was depilated again on day 28, and photographs for assessment of depigmentation were taken on day 35. All animal experimental procedures were conducted in accordance with the guidelines of the Amgen Animal Care and Use Committee and the Association for Assessment and Accreditation of Laboratory Animal Care standards.

A further test concerns the target T2, Kit V560D/V654A mutant (Homo sapiens, UniProt P10721, V560D/V654A).
T2 construct: human wild-type KIT to yield full-length, mutant constructs; expressed in transfected cells; host or cells: AM-1/D CHO cells, stably transfected
The experiment in a line: Cell-based Kit autophosphorylation assay, V560D/V654A mutant. The conditions noted are these: autophosphorylation IC50 […] nM versus […] nM. The protocol:
as §2

On to `CCN(CC)CCNC(=O)c1c(C)[nH]c(/C=C2\C(=O)Nc3ccc(F)cc32)c1C` [sunitinib], for which, in test [1], the Hair depigmentation result is “Depigmentation has previously been observed”.
On to `CC1(C)CNc2cc(NC(=O)c3cccnc3NCc3ccncc3)ccc21` [Motesanib], for which the IC50 with Kit is […]; in test [2], 3 nM; in test [3], 91 nM; in [4] it was 180 nM; in test [5], 62 nM; in test [6] it was 11 nM. In addition, the IC50 in [7] is 0.4 nM; with PDGFR, 84 nM. Further, the “Inhibition of autophosphorylation of the D816V mutant” value at Kit D816V mutant was “neither motesanib nor imatinib inhibited”. Moreover, the “Hair depigmentation of regrown hair” value in test [8] (75 mg/kg oral twice daily for 21 days after depilation, assessed day 21, vs vehicle) is “markedly depigmented”. In addition, the “Hair depigmentation of regrown hair after cessation of treatment” value in test [8] (treatment stopped day 21, depilated again day 28, assessed day 35) is reported as “no apparent depigmentation”. Moreover, the “Loss of activity, V560D/V654A double mutant compared with V560D alone” value at Kit V560D/V654A mutant is reported as “fifteen-fold loss”.
